Consider five compounds from patent US9096601B2 (CSPC Zhongqi Pharmaceutical Technology (Shijiazhuang) Co., …, priority 2010, dated 2015).

By IC50 is commonly meant the concentration at which inhibition is half-maximal.

What all share (experiment): In-vitro tumor cell proliferation inhibition, MTT
Common to all, as to type: cell-based, human

Test [1] has as its system malignant melanoma cell strain A375. As to conditions: 72 hours. The text has this:
(§1) The object of this assay was to test the inventive compounds for the inhibitory activity of in-vitro tumor cell proliferation. The MTT (tetreamethyl-azo-zole-salt) colorimetric method was used in this assay.
(§2) Human non-small cell lung carcinoma cell strains HCC827, PC-9, H1975 (EGFR L858R/T790M mutation) and H292 (EGFR WT), and other tumor type cell strains, including human acute myelogenous leukemia cell strain MV4-11, human chronic granulocytic leukemia cell strain K562, human squamous cell carcinoma cell strain A431, human breast carcinoma cell strains MDA-MB-468 and BT 474, human colon cancer cell strains SW480, HCT116 and SW620, human liver cancer cell strain Hep G2, human gastric cancer cell strain MK-45, and human malignant melanoma cell strain A375 used in this assay were all purchased from ATCC company, USA and kept in the laboratory. All of the above-mentioned non-small cell lung carcinoma cell strains and the breast carcinoma cell strain BT 474 were cultured with a RPMI-1640 complete culture medium containing 10% fetal bovine serum, 100 U/ml penicillin and 100 μg/ml streptomycin under 5% CO2 and at 37° C. The other cell strains were cultured with a DMEM complete culture medium containing 10% fetal bovine serum (having a MV4-11 cell content of 20%), 100 U/ml penicillin and 100 μg/ml streptomycin under 5% CO2 and 37° C.
(§3) A cell suspension having a cell concentration of 1-2×10^4 cells/ml was treated with a complete cell culture solution to adjust the cell concentration, wherein the cell concentrations for HCC827 and MV4-11 were adjusted to 6×10^4 cells/ml and 1×10^5 cells/ml respectively. The cell suspension was inoculated in a 96-well plate with 200 μl cell suspension/well and cultured overnight. Next day, the supernatant was drawn off and discarded. Then, the cells were treated with the tested compounds in a gradient concentration respectively. In the meanwhile, a negative control group free of the drug substance and an isovolumetric solvent control group (having a DMSO concentration of 1%) were used. The triplicate wells were used for each of dose groups. The culturing was conducted at 37° C. under 5% CO2. After 72 hours, […] having a concentration of 5 mg/ml was added to each of wells. The culturing was further conducted for 2-4 hours. The supernatant was discarded. Then […] was added to each of wells. The contents in the well were mixed homogenously by oscillation for 15 minutes. The absorbance (A) value was measured with a microplate reader at λ=570 nm (the A value is in the direct proportion to the number of living cells) and averaged. The relative cell proliferation inhibitory rate is (A570 control-group−A570 dose-group)/A570 control-group×100%. The assay was repeated for at least three times. The data was expressed as number average. The statistical data were analyzed using t-test. P<0.05 was considered significant. The cell proliferation inhibition of the following compounds was expressed as IC50 or inhibitory rate.

Test [2] has as its system colon cancer cell strain SW620. Conditions: 72 hours.
Description: as §1, §2, §3

The test system of test [3] is breast carcinoma cell strain MDA-MB-468. Conditions: 72 hours.
Description: as §1, §2, §3

For test [4], the system named is gastric cancer cell strain MK-45. As to conditions: 72 hours, read-out: MK45 (IC50).
Description: as §1, §2, §3

Test [5] deals with acute myelogenous leukemia cell strain MV4-11. As to conditions: 72 hours.
Description: as §1, §2, §3

In test [6] the test system is colon cancer cell strain HCT116. Conditions: 72 hours.
Description: as §1, §2, §3

For test [7], the system named is breast carcinoma cell strain BT474. As to conditions: 72 hours.
Description: as §1, §2, §3

Test [8] has as its system squamous cell carcinoma cell strain A431. Conditions: 72 hours.
Description: as §1, §2, §3

In test [9] the test system is liver cancer cell strain Hep G2. Conditions: 72 hours, read-out: HEPG2 (IC50).
Description: as §1, §2, §3

For test [10], the system named is colon cancer cell strain SW480. As to conditions: 72 hours.
Description: as §1, §2, §3

The subject of test [11] is chronic granulocytic leukemia cell strain K562. Conditions: 72 hours.
Description: as §1, §2, §3

Test [12] relates to non-small cell lung carcinoma cell strain HCC827. Conditions: 72 hours. The procedure: as §1
(§4) All of the above-mentioned non-small cell lung carcinoma cell strains and the breast carcinoma cell strain BT 474 were cultured with a RPMI-1640 complete culture medium containing 10% fetal bovine serum, 100 U/ml penicillin and 100 μg/ml streptomycin under 5% CO2 and at 37° C. The other cell strains were cultured with a DMEM complete culture medium containing 10% fetal bovine serum (having a MV4-11 cell content of 20%), 100 U/ml penicillin and 100 μg/ml streptomycin under 5% CO2 and 37° C.
as §3

Test [13] relates to non-small cell lung carcinoma cell strain H292 (EGFR WT). Conditions: 72 hours. As for the experimental part:
as §1, §4, §3

In test [14] the test system is non-small cell lung carcinoma cell strain H1975 (EGFR L858R/T790M mutation). Conditions: 72 hours. The procedure:
as §1, §4, §3

In test [15] the test system is non-small cell lung carcinoma cell strain PC-9 (EGFR delE746-A750 deletion mutation). As to conditions: 72 hours. As for the experimental part:
as §1, §4, §3

`CN1CCN(c2ccc(Nc3ncc4nc(Nc5cccc([N+](=O)[O-])c5)n(C5CCCC5)c4n3)cc2)CC1` [Compounds 8-44]: the IC50 is 1.74 µM in test [1]; 2.51 µM in test [2]; 2.67 µM in test [3]; 1.35 µM in test [4]; 1.14 µM in test [5]; over 10 µM in test [6]. Moreover, the IC50 in [7] was 0.681 µM; in test [8], 0.409 µM; in test [9], over 10 µM; in test [10], 6.16 µM; in [11], 0.0965 µM; in [12], 0.0003 µM. The IC50 was 0.0029 µM in test [13], 0.695 µM in test [14] and 0.0015 µM in test [15].
As to `CN1CCN(c2ccc(Nc3ncc4nc(Nc5ccc(F)c(Cl)c5)n(C5CCCC5)c4n3)cc2)CC1` [Compounds 8-35], the IC50 in test [1] is 3.25 µM; in test [2], 2.3 µM; in test [3], 1.92 µM; in test [4], 1.11 µM; in test [5], 0.135 µM; in test [6], 0.676 µM. Further, the IC50 in test [7] is 0.192 µM; in test [8], 0.635 µM; in test [9], 4.34 µM; in [10] it was 5.93 µM; in test [11] it was 0.232 µM; in test [12], 0.0002 µM. In addition, the IC50 in [13] was 0.0203 µM; in [14] it was 1.52 µM; in [15], 0.0015 µM.
With `CN1CCN(c2ccc(Nc3ncc4nc(NCc5ccccc5)n(C5CCCC5)c4n3)cc2)CC1` [Compounds 8-45], the IC50 amounted to 9.26 µM in test [1]; 4.97 µM in test [2]; 2.87 µM in test [3]; 3.74 µM in test [4]; 0.0594 µM in test [5]; 7.08 µM in test [6]. Besides, the IC50 in test [7] is 0.87 µM; in test [8], 1.89 µM; in test [9], over 10 µM; in test [10], 7.75 µM; in [11], 0.218 µM; in test [12], 0.0002 µM. In addition, the IC50 in test [13] turned out to be 0.0139 µM; in [14], 1.14 µM; in test [15] it was 0.0097 µM.
For `CN1CCN(c2ccc(Nc3ncc4nc(Nc5cccc(F)c5)n(C5CCCC5)c4n3)cc2)CC1` [Compounds 8-49], the IC50 in test [1] worked out at 1.98 µM; in [2] it was 1.44 µM; in test [3], 0.987 µM; in test [4], 0.543 µM; in test [5] it was 0.193 µM; in [6] it was 1.44 µM. For the same compound, the IC50 in [7] is 2.67 µM; in test [8] it was 0.587 µM; in test [9], 9.24 µM; in [10], 5.04 µM; in [11] it was 0.121 µM; in test [12], 0.0003 µM. In addition, the IC50 worked out at 0.0045 µM in test [13], 0.31 µM in [14] and 0.0002 µM in test [15].
`c1ccc(Nc2nc3cnc(Nc4ccc(CN5CCOCC5)cc4)nc3n2C2CCCC2)cc1` [Compounds 8-48]: the IC50 in test [1] is 2.08 µM; in test [2], 2.94 µM; in test [3], 2.13 µM; in test [4], 0.297 µM; in test [5] it was 0.583 µM; in [6] it was over 10 µM. For the same compound, the IC50 was 0.525 µM in test [7]; 0.788 µM in [8]; over 10 µM in test [9]; 9.89 µM in [10]; 0.23 µM in test [11]; 0.0002 µM in test [12]. In addition, the concentration for half-maximal inhibition (IC50) was 0.0185 µM in test [13], 4.58 µM in [14] and 0.0262 µM in test [15].
